One experiment deals with Klebsiella pneumoniae. Kind of experiment: microbe, parasite or virus in culture. The following applies: ATCC 700603, 18 h, ASSAY_TEST Inhibition of Bacterial Growth, detection method Absorption (OD600), MEDIA CAMHB, plate type 384well, NBS, CORNING #3640.
The test system of experiment [1] is Pseudomonas aeruginosa. Description: Antibacterial activity against Pseudomonas aeruginosa PAO397 [PAO1 d(mexAB-oprM) d(mexCD-oprJ) d(mexEF-oprN) d(mexJKL) d(mexXY) d(opmH)] (CO-ADD:GN_211); MIC in CAMBH media using NBS plates, by OD(600). The experiment is classed as functional. The following applies: ASSAY_TEST Inhibition of Bacterial Growth, detection method Absorption (OD600), MEDIA CAMHB, plate type 384well, CORNING #3640, time 18 hr.

The test system of a further experiment is Candida albicans. Kind of experiment: microbe, parasite or virus in culture. The following applies: ATCC 90028, ASSAY_TEST Inhibition of Fungal Growth, detection method Absorption (OD530), plate type 384well, NBS, CORNING #3640.
In the next experiment the test system is Staphylococcus aureus. Description: microbe, parasite or virus in culture. As to conditions: ATCC 43300, 18 h, ASSAY_TEST Inhibition of Bacterial Growth, detection method Absorption (OD600), MEDIA CAMHB, plate type 384well, NBS, CORNING #3640.
The subject of experiment [2] is Pseudomonas aeruginosa. Description: microbe, parasite or virus in culture. As to conditions: ATCC 27853, 18 h, ASSAY_TEST Inhibition of Bacterial Growth, detection method Absorption (OD600), MEDIA CAMHB, plate type 384well, NBS, CORNING #3640.
Description: Antibacterial activity against Pseudomonas aeruginosa ATCC 27853 (CO-ADD:GN_042); MIC in CAMBH media using NBS plates, by OD(600)
In the next experiment the test system is HEK293. Description: cells. Format: functional, Homo sapiens, ATCC CRL1573. As to conditions: Homo sapiens, ATCC CRL1573, HEK293; ASSAY_TEST Inhibition of Cell Viability; detection method Resazurin; Fluorescence (ex560/em590); MEDIA DMEM with 10% FBS; plate type 384well; TC; CORNING #3712; time 18 hr; read-out: CC50. On the technique in general: Resazurin is reduced to fluorescent resorufin, in cell work by metabolically active cells.

For a further experiment, the system named is Acinetobacter baumannii. Description: microbe, parasite or virus in culture. As to conditions: ATCC 19606, 18 h, ASSAY_TEST Inhibition of Bacterial Growth, detection method Absorption (OD600), MEDIA CAMHB, plate type 384well, NBS, CORNING #3640.
In another experiment the test system is Escherichia coli. Kind of experiment: microbe, parasite or virus in culture. As to conditions: ATCC 25922, 18 h, ASSAY_TEST Inhibition of Bacterial Growth, detection method Absorption (OD600), MEDIA CAMHB, plate type 384well, NBS, CORNING #3640.

≈ marks a conversion by molar mass, not a printed value. Structures can show the parent of a compound that is named as a salt. Where only a bound is given, the exact number is not on record here.

Description for Acinetobacter baumannii: Antibacterial activity against Acinetobacter baumannii ATCC 19606 (CO-ADD:GN_034); MIC in CAMBH media using NBS plates, by OD600
Description for Candida albicans: Antifungal activity against Candida albicans ATCC 90028 (CO-ADD:FG_001); MIC in YNB media using NBS plates, by OD630
Description for Cryptococcus neoformans: Antifungal activity against Cryptococcus neoformans H99 ATCC 208821 (CO-ADD:FG_002); MIC in YNB media using NBS plates, by Resazurin OD(600-570)
Description for Escherichia coli: Antibacterial activity against Escherichia coli ATCC 25922 (CO-ADD:GN_001); MIC in CAMBH media using NBS plates, by OD(600)
Description for Klebsiella pneumoniae: Antibacterial activity against Klebsiella pneumoniae MDR ATCC 70063 (CO-ADD:GN_003); MIC in CAMBH media using NBS plates, by OD(600)
Description for Staphylococcus aureus: Antibacterial activity against Staphylococcus aureus MRSA ATCC 43300 (CO-ADD:GP_020); MIC in CAMBH media, using NBS plates, by OD(600)

A word on the CC50: it is the concentration at which the toxic effect on the cells reaches its halfway point. Regarding `CC[C@H](CO)Nc1nc(NCc2ccccc2)c2ncn(C(C)C)c2n1` [SELICICLIB], the MIC in the experiment on Klebsiella pneumoniae, in the experiment with Pseudomonas aeruginosa [1], against Candida albicans, against Staphylococcus aureus, in the experiment on Pseudomonas aeruginosa [2] and against Cryptococcus neoformans was above 20 µM each time. Moreover, the MIC against Acinetobacter baumannii and against Escherichia coli was above 20 µM throughout. The cytotoxic concentration (CC50) with HEK293 is above 20 µM.
Regarding `N[C@@H]1CN(c2c(F)cc3c(=O)c(C(=O)O)cn([C@@H]4C[C@@H]4F)c3c2Cl)CC12CC2` [SITAFLOXACIN ANHYDROUS], the MIC against Klebsiella pneumoniae is 5 µM (≈ 2.05 µg/mL); against Pseudomonas aeruginosa [1], at most 0.156 µM; in the experiment on Candida albicans, above 20 µM; in the experiment with Staphylococcus aureus, 0.312 µM (≈ 0.128 µg/mL); against Pseudomonas aeruginosa [2], 2.5 µM (≈ 1.02 µg/mL); against Cryptococcus neoformans, above 20 µM. For the same compound, the MIC in the experiment with Acinetobacter baumannii was 5 µM (≈ 2.05 µg/mL); with Escherichia coli, at most 0.156 µM. Moreover, the 50% cytotoxic concentration (CC50) in the experiment on HEK293 was above 20 µM.
As for `CC(C)=CCC/C(C)=C/CNCCNC1C2CC3CC(C2)CC1C3` (stereo unspecified) [SQ109], the MIC was above 20 µM against Klebsiella pneumoniae; 20 µM (≈ 6.61 µg/mL) against Pseudomonas aeruginosa [1]; above 20 µM in the experiment with Candida albicans; above 20 µM with Staphylococcus aureus; above 20 µM in the experiment with Pseudomonas aeruginosa [2]; above 20 µM in the experiment on Cryptococcus neoformans. In addition, the MIC against Acinetobacter baumannii and in the experiment with Escherichia coli was above 20 µM throughout. Further, the CC50 in the experiment on HEK293 amounted to 19.5 µM.
Take `COc1cc(C)c2c(Oc3cccc(C(F)(F)F)c3)c(OC)cc(NC(C)CCCN)c2n1` (stereo unspecified) [TAFENOQUINE SUCCINATE]: the MIC against Klebsiella pneumoniae is above 20 µM; in the experiment on Pseudomonas aeruginosa [1], above 20 µM; against Candida albicans, above 20 µM; with Staphylococcus aureus it was 10 µM; in the experiment with Pseudomonas aeruginosa [2], above 20 µM; in the experiment on Cryptococcus neoformans, above 20 µM. Further, the MIC against Acinetobacter baumannii and in the experiment on Escherichia coli was above 20 µM each time. In addition, in the experiment with HEK293, the CC50 was 6.36 µM.
For the compound `O=C(NN1C(=O)[C@@H]2[C@@H]3C=C[C@@H]([C@H]4C[C@@H]34)[C@@H]2C1=O)c1ccc(C(F)(F)F)cc1` [TECOVIRIMAT], the MIC in the experiment on Klebsiella pneumoniae, against Pseudomonas aeruginosa [1], against Candida albicans, against Staphylococcus aureus, in the experiment with Pseudomonas aeruginosa [2] and in the experiment on Cryptococcus neoformans was above 20 µM in each case. Besides, the MIC with Acinetobacter baumannii and in the experiment on Escherichia coli was above 20 µM each time. Also, the CC50 in the experiment with HEK293 is above 20 µM.
For the compound `CCc1nc2ccc(Cl)cn2c1C(=O)NCc1ccc(N2CCC(c3ccc(OC(F)(F)F)cc3)CC2)cc1` [TELACEBEC], the MIC against Klebsiella pneumoniae, with Pseudomonas aeruginosa [1], against Candida albicans, in the experiment with Staphylococcus aureus, in the experiment on Pseudomonas aeruginosa [2] and against Cryptococcus neoformans was above 20 µM throughout. Further, the MIC in the experiment on Acinetobacter baumannii and against Escherichia coli was above 20 µM in each case. For the same compound, in the experiment on HEK293, the CC50 is above 20 µM.
On to `C[C@H](Cn1cnc2c(N)ncnc21)OCP(=O)(O)O` [TENOFOVIR ANHYDROUS], for which the MIC with Klebsiella pneumoniae, with Pseudomonas aeruginosa [1], in the experiment with Candida albicans, against Staphylococcus aureus, against Pseudomonas aeruginosa [2] and against Cryptococcus neoformans was above 20 µM throughout. Moreover, the MIC in the experiment with Acinetobacter baumannii and in the experiment on Escherichia coli was above 20 µM throughout. In addition, the CC50 in the experiment with HEK293 is above 20 µM.
Regarding `COc1ccc(C[C@@H](C)[C@@H](C)Cc2ccc(OC)c(OC)c2)cc1OC` [TERAMEPROCOL], the MIC in the experiment with Klebsiella pneumoniae, with Pseudomonas aeruginosa [1], in the experiment on Candida albicans, against Staphylococcus aureus, with Pseudomonas aeruginosa [2] and in the experiment with Cryptococcus neoformans was above 20 µM in each case. Moreover, the MIC in the experiment with Acinetobacter baumannii and against Escherichia coli was above 20 µM in each case. Besides, the CC50 in the experiment with HEK293 is above 20 µM.
Regarding `CN(C/C=C/C#CC(C)(C)C)Cc1cccc2ccccc12` [TERBINAFINE HYDROCHLORIDE], the MIC in the experiment on Klebsiella pneumoniae is above 20 µM; with Pseudomonas aeruginosa [1], above 20 µM; in the experiment on Candida albicans it was above 20 µM; with Staphylococcus aureus, above 20 µM; in the experiment with Pseudomonas aeruginosa [2], above 20 µM; in the experiment with Cryptococcus neoformans, 20 µM. For the same compound, the MIC with Acinetobacter baumannii and with Escherichia coli was above 20 µM throughout. For the same compound, the CC50 in the experiment on HEK293 was above 20 µM.

The values are drawn from ChEMBL document CHEMBL4513161, “CO-ADD screening of MMV (CH) - Pandemic Response Box” (2021).
